The values that follow come from patent US11548899B2, “Fused 1,4-oxazepines and related analogs as BET bromodomain inhibitors” (THE REGENTS OF THE UNIVERSITY OF MICHIGAN, priority 2016, dated 2023).

Several values for one entry are separate records, joined by “and”; a condition that tells them apart may be missing. Identical values can stand only once.

In assay [1] the target is T1, recombinant BRD4 BD1 (Homo sapiens, UniProt O60885).
T1 construct: recombinant BRD4 BD1 and BRD4 BD2 proteins
The assay is described as follows: Competitive fluorescence-polarization (FP) binding assay, BRD4 BD1. The note with it: FP competitive binding; protein 10 nM, probe 1.5 nM; read-out: IC50 (nM) BRD4 BD1.
Procedure: Fluorescence Polarization (FP) competitive binding studies were carried out using a FAM labeled fluorescent probe, see Cpd. […] Equilibrium dissociation constants (Kd) values of the fluorescent probe to BRD4 BD1 and BD2 proteins were determined from protein saturation experiments by monitoring the total fluorescence polarization of mixtures composed with the fluorescent probe at a fixed concentration and proteins with increasing concentrations up to full saturation. […] Plates were incubated at room temperature for 30 minutes with gentle shaking to assure equilibrium.
The IC50 and Ki values of compounds were determined in a competitive binding experiment. […] Mixtures of 10 μl of the tested compounds in assay buffer with 40% Ethylene Glycol and 190 μl of preincubated protein/probe complex solution in the assay buffer (100 mM potassium phosphate, pH 6.5, 0.01% Triton X-100) were added into assay plates which were incubated at room temperature for 30 minutes with gentle shaking. Final concentrations of proteins were 10 and 6 nM in assays for BRD4 BD1 and BD2, respectively. […] FP values were measured as described above. IC50 values were determined by nonlinear regression fitting of the competition curves.

The target in assay [2] is T2, recombinant BRD4 BD2 (Homo sapiens, UniProt O60885).
T2 construct: recombinant BRD4 BD1 and BRD4 BD2 proteins
The experiment in a line: Competitive fluorescence-polarization (FP) binding assay, BRD4 BD2. The note with it: protein 6 nM, probe 1.5 nM.
Procedure: Fluorescence Polarization (FP) competitive binding studies were carried out using a FAM labeled fluorescent probe, see Cpd. […] Equilibrium dissociation constants (Kd) values of the fluorescent probe to BRD4 BD1 and BD2 proteins were determined from protein saturation experiments by monitoring the total fluorescence polarization of mixtures composed with the fluorescent probe at a fixed concentration and proteins with increasing concentrations up to full saturation. Serial dilutions of testing proteins were mixed with the fluorescent probe to a final volume of 200 μl in the assay buffer (100 mM phosphate buffer, pH=6.5, 0.01% Triton X-100 (Sigma, 282103) being added right before assays). Final fluorescent probe concentration was 1.5 nM for both proteins. Plates were incubated at room temperature for 30 minutes with gentle shaking to assure equilibrium. FP values in millipolarization units (mP) were measured using the Infinite M-1000 plate reader (Tecan U.S., Research Triangle Park, N.C.) in Microfluor 1 96-well, black, round-bottom plates (Thermo Scientific, Waltham, Mass.) at an excitation wavelength of 485 nm and an emission wavelength of 530 nm.
The IC50 and Ki values of compounds were determined in a competitive binding experiment. […] Mixtures of 10 μl of the tested compounds in assay buffer with 40% Ethylene Glycol and 190 μl of preincubated protein/probe complex solution in the assay buffer (100 mM potassium phosphate, pH 6.5, 0.01% Triton X-100) were added into assay plates which were incubated at room temperature for 30 minutes with gentle shaking. Final concentrations of proteins were 10 and 6 nM in assays for BRD4 BD1 and BD2, respectively. Final probe concentration is 1.5 nM in both assays. […] FP values were measured as described above. IC50 values were determined by nonlinear regression fitting of the competition curves.

With `Cc1nnc2n1-c1cccc(C(=O)c3ccccc3)c1COC2` [Cpd. No. 52, (1-methyl-4,6-dihydrobenzo[e][1,2,4]triazolo[3,4-c][1,4]oxazepin-7-yl)(phenyl)methanone], the concentration for half-maximal inhibition (IC50) in assay [1] and in assay [2] was greater than 10000 nM in each case.
Take `Cc1nnc2n1-c1cccc([S+]([O-])c3ccccc3)c1COC2` (stereo not drawn) [Cpd. No. 41, 1-methyl-7-(phenylsulfinyl)-4,6-dihydrobenzo[e][1,2,4]triazolo[3,4-c][1,4]oxazepine]: the results for the IC50 in assay [1] and in assay [2] were 18000 nM and 16600 nM, respectively.
For `Cc1sc2c(c1Cc1ccccc1)CN[C@@H](C)c1nnc(C)n1-2` [Cpd. No. 13, (S)-3-benzyl-2,6,9-trimethyl-5,6-dihydro-4H-thieno[3,2-f][1,2,4]triazolo[4,3-a][1,4]diazepine], the IC50 in assay [1] was 1070 nM and 1200 nM; in assay [2], 1210 nM and 1350 nM.
Take `Cc1nnc2n1-c1cccc(C3=CCc4ccccc43)c1COC2` [Cpd. No. 44, 7-(1H-inden-3-yl)-1-methyl-4,6-dihydrobenzo[e][1,2,4]triazolo[3,4-c][1,4]oxazepine]: the IC50 in assay [1] was determined as 4400 nM; in assay [2], 238 nM.
On to `Cc1nnc2n1-c1cccc(C3CCc4ccccc43)c1COC2` (stereo not drawn) [Cpd. No. 47, 7-(2,3-dihydro-1H-inden-1-yl)-1-methyl-4,6-dihydrobenzo[e][1,2,4]triazolo[3,4-c][1,4]oxazepine], for which the half-inhibitory concentration (IC50) stood at 1200 nM in assay [1] and 303 nM in assay [2].
For `CCNC(=O)N1Cc2c(sc(C)c2Cc2ccccc2)-n2c(C)nnc2[C@@H]1C` [Cpd. No. 22, (S)-3-benzyl-N-ethyl-2,6,9-trimethyl-4H-thieno[3,2-f][1,2,4]triazolo[4,3-a][1,4]diazepine-5(6H)-carboxamide], in that order: 6060 nM and 5920 nM.
Consider `Cc1sc2c(c1C1=CCCc3ccccc31)COCc1nnc(C)n1-2` [Cpd. No. 51, 3-(3,4-dihydronaphthalen-1-yl)-2,9-dimethyl-4,6-dihydrothieno[2,3-e][1,2,4]triazolo[3,4-c][1,4]oxazepine], for which the IC50 amounted to 256 nM in assay [1] and 207 nM in assay [2].
Take `COC(=O)C[C@H]1c2nnc(C)n2-c2sc(C)c(Cc3ccccc3)c2CN1C(=O)OCc1ccccc1` [Cpd. No. 21, benzyl (S)-3-benzyl-6-(2-methoxy-2-oxoethyl)-2,9-dimethyl-4H-thieno[3,2-f][1,2,4]triazolo[4,3-a][1,4]diazepine-5(6H)-carboxylate]: the IC50 in assay [1] came out at 23800 nM; in assay [2], 17700 nM.
`Cc1sc2c(c1Br)CN(C(=O)OCc1ccccc1)[C@@H](C)c1nnc(C)n1-2` [Cpd. No. 147, benzyl (S)-3-bromo-2,6,9-trimethyl-4H-thieno[3,2-f][1,2,4]triazolo[4,3-a][1,4]diazepine-5(6H)-carboxylate]: the IC50 was found to be 48600 nM in assay [1] and 83700 nM in assay [2].
On to `Cc1nnc2n1-c1cccc(Cc3ccc(OC(F)(F)F)cc3)c1COC2` [Cpd. No. 45, 1-methyl-7-(4-(trifluoromethoxy)benzyl)-4,6-dihydrobenzo[e][1,2,4]triazolo[3,4-c][1,4]oxazepine], for which the concentration for half-maximal inhibition (IC50) in assay [1] was determined as 1550 nM; in assay [2], 1370 nM.
Regarding `C=C(c1ccccc1)c1cccc2c1COCc1nnc(C)n1-2` [Cpd. No. 43, 1-methyl-7-(1-phenylvinyl)-4,6-dihydrobenzo[e][1,2,4]triazolo[3,4-c][1,4]oxazepine], the results for the IC50 in assay [1] and in assay [2] were 3530 nM and 328 nM, respectively.
In the case of `Cc1nnc2n1-c1cccc(Sc3ccccc3)c1COC2` [Cpd. No. 39, 1-methyl-7-(phenylthio)-4,6-dihydrobenzo[e][1,2,4]triazolo[3,4-c][1,4]oxazepine], the concentration for half-maximal inhibition (IC50) in assay [1] turned out to be 5450 nM; in assay [2], 1060 nM.
Regarding `Cc1sc2c(c1Cc1ccccc1)CN(C1CCC1)[C@@H](C)c1nnc(C)n1-2` [Cpd. No. 29, (S)-3-benzyl-5-cyclobutyl-2,6,9-trimethyl-5,6-dihydro-4H-thieno[3,2-f][1,2,4]triazolo[4,3-a][1,4]diazepine], the IC50 is 1470 nM in assay [1] and 5860 nM in assay [2].
Turning to `Cc1nnc2n1-c1cccc(Br)c1COC2` [Cpd. No. 36, 7-bromo-1-methyl-4,6-dihydrobenzo[e][1,2,4]triazolo[3,4-c][1,4]oxazepine], the half-inhibitory concentration (IC50) in assay [1] and in assay [2] was greater than 10000 nM each time.
For `CCOC(=O)CN1Cc2c(sc(C)c2Cc2ccccc2)-n2c(C)nnc2[C@@H]1C` [Cpd. No. 25, ethyl (S)-2-(3-benzyl-2,6,9-trimethyl-4H-thieno[3,2-f][1,2,4]triazolo[4,3-a][1,4]diazepin-5(6H)-yl)acetate], the figures for the IC50 in assay [1] and in assay [2] were 942 nM and 1100 nM, respectively.
`COC(=O)C[C@@H]1NCc2c(sc(C)c2Cc2ccccc2)-n2c(C)nnc21` [Cpd. No. 23, methyl(S)-2-(3-benzyl-2,9-dimethyl-5,6-dihydro-4H-thieno[3,2-f][1,2,4]triazolo[4,3-a][1,4]diazepin-6-yl)acetate]: the figures for the half-maximal inhibitory concentration (IC50) in assay [1] and in assay [2] were 2500 nM and 9010 nM, respectively.
Consider `Cc1nnc2n1-c1cccc(Cc3ccccc3)c1COC2` [Cpd. No. 38, 7-benzyl-1-methyl-4,6-dihydrobenzo[e][1,2,4]triazolo[3,4-c][1,4]oxazepine], for which the half-maximal inhibitory concentration (IC50) is 1420 nM and 1260 nM in assay [1]; 367 nM in assay [2].
`Cc1nnc2n1-c1cccc(Nc3ccccc3)c1COC2` [Cpd. No. 37, 1-methyl-N-phenyl-4,6-dihydrobenzo[e][1,2,4]triazolo[3,4-c][1,4]oxazepin-7-amine]: the 50% inhibitory concentration (IC50) worked out at 14500 nM in assay [1] and 1460 nM in assay [2].
For `Cc1sc2c(c1C1CCCc3ccccc31)COCc1nnc(C)n1-2` (stereo not drawn) [Cpd. No. 54, 2,9-dimethyl-3-(1,2,3,4-tetrahydronaphthalen-1-yl)-4,6-dihydrothieno[2,3-e][1,2,4]triazolo[3,4-c][1,4]oxazepine] the same measures were 210 nM and 127 nM.
For the compound `Cc1sc2c(c1Cc1ccccc1)CN(S(=O)(=O)CCc1ccccc1)[C@@H](C)c1nnc(C)n1-2` [Cpd. No. 26, (S)-3-benzyl-2,6,9-trimethyl-5-(phenethylsulfonyl)-5,6-dihydro-4H-thieno[3,2-f][1,2,4]triazolo[4,3-a][1,4]diazepine], the figures for the concentration for half-maximal inhibition (IC50) in assay [1] and in assay [2] were 9600 nM and 4460 nM, respectively.
On to `Cc1sc2c(c1Cc1ccccc1)CO[C@H](C)c1nnc(C)n1-2` [Cpd. No. 114, (R)-3-benzyl-2,6,9-trimethyl-4H,6H-thieno[2,3-e][,2,4]triazolo[3,4-c][1,4]oxazepine], for which the IC50 in assay [1] is 249 nM; in assay [2] it was 297 nM.
For `Cc1sc2c(c1Cc1ccccc1)COC(CC(=O)OC(C)(C)C)c1nnc(C)n1-2` (stereo not drawn) [Cpd. No. 115, tert-butyl 2-(3-benzyl-2,9-dimethyl-4H,6H-thieno[2,3-e][1,2,4]triazolo[3,4-c][1,4]oxazepin-6-yl)acetate], in that order: 170 nM and 338 nM.
As to `Cc1sc2c(c1Cn1cccn1)COCc1nnc(C)n1-2` [Cpd. No. 112, 3-((1H-pyrazol-1-yl)methyl)-2,9-dimethyl-4H,6H-thieno[2,3-e][1,2,4]triazolo[3,4-c][1,4]oxazepine], the IC50 is 1370 nM and 2610 nM and 1760 nM in assay [1]; 3230 nM and 3850 nM and 3950 nM in assay [2].
Regarding `CCC(=O)N1Cc2c(sc(C)c2Cc2ccccc2)-n2c(C)nnc2[C@@H]1C` [Cpd. No. 19, (S)-1-(3-benzyl-2,6,9-trimethyl-4H-thieno[3,2-f][1,2,4]triazolo[4,3-a][1,4]diazepin-5(6H)-yl)propan-1-one], the values for the concentration for half-maximal inhibition (IC50) in assay [1] and in assay [2] were 2430 nM and 3210 nM, respectively.
With `Cc1sc2c(c1Cc1ccccc1)CN[C@H](C)c1nnc(C)n1-2` [Cpd. No. 17, (R)-3-benzyl-2,6,9-trimethyl-5,6-dihydro-4H-thieno[3,2-f][1,2,4]triazolo[4,3-a][1,4]diazepine], the IC50 in assay [1] was determined as 1080 nM; in assay [2] it was 622 nM.
For `Cc1nnc2n1-c1cccc(S(=O)(=O)c3ccccc3)c1COC2` [Cpd. No. 42, 1-methyl-7-(phenylsulfonyl)-4,6-dihydrobenzo[e][1,2,4]triazolo[3,4-c][1,4]oxazepine], the IC50 in assay [1] was 10300 nM; in assay [2], 5020 nM.
Turning to `Cc1sc2c(c1C1CCc3ccccc31)COCc1nnc(C)n1-2` (stereo not drawn) [Cpd. No. 55, 3-(2,3-dihydro-1H-inden-1-yl)-2,9-dimethyl-4,6-dihydrothieno[2,3-e][1,2,4]triazolo[3,4-c][1,4]oxazepine], in assay [1], the IC50 was determined as 288 nM.
As for `Cc1nnc2n1-c1cccc(C3CCCCc4ccccc43)c1COC2` (stereo not drawn) [Cpd. No. 60, 1-methyl-7-(6,7,8,9-tetrahydro-5H-benzo[7]annulen-5-yl)-4,6-dihydrobenzo[e][1,2,4]triazolo[3,4-c][1,4]oxazepine], in assay [1], the IC50 amounted to 1150 nM.
